# Measurements as given in ChEMBL document CHEMBL3885861, “Open TG-GATES”.
# Species: Rattus norvegicus
# Experiment: Open TG-GATES - Regimen: Daily Repeat
# Assay type: toxicity, organism-based, Sprague-Dawley
# Parameters: regimen Daily Repeat, gender Male, age 6 weeks
# Details: in vivo, po, 200 mg/kg, route gavage, dose level Middle; for APTT / Bas / Eos / Fbg / Hb / Ht / Lym / MCH / MCHC / MCV / Mono / Neu / PT / Plat / RBC / Ret / WBC: tissue Blood
# [1] = 72 h, tissue Kidney, time 3 day
# [2] = 72 h, tissue Plasma, time 3 day
compound,measurement,setting,value
C[C@](N)(Cc1ccc(O)c(O)c1)C(=O)O [METHYLDOPA],TERMINAL_BW,"72 h, time 3 day",196.2 g
same,APTT,"72 h, time 3 day",15.9 s
same,Bas,"72 h, time 3 day",0%
same,Eos,"72 h, time 3 day",0.8%
same,Fbg,"72 h, time 3 day",292.8 mg/dL
same,Hb,"72 h, time 3 day",13.8 g/dL
same,Ht,"72 h, time 3 day",40.6%
same,Lym,"72 h, time 3 day",79.4%
same,MCH,"72 h, time 3 day",22.1 pg
same,MCHC,"72 h, time 3 day",34%
same,MCV,"72 h, time 3 day",65 fL
same,Mono,"72 h, time 3 day",2.6%
same,Neu,"72 h, time 3 day",16.4%
same,PT,"72 h, time 3 day",12.7 s
same,Plat,"72 h, time 3 day",107.2 x10_4/uL
same,RBC,"72 h, time 3 day",626 x10_4/ul
same,Ret,"72 h, time 3 day",7.2%
same,WBC,"72 h, time 3 day",59.1 x10_2/uL
same,KIDNEY_L,[1],0.9 g
same,KIDNEY_R,[1],0.9 g
same,KIDNEY_TOTAL,[1],1.9 g
same,LIVER,"72 h, tissue Liver, time 3 day",8.5 g
same,A/G,[2],0.9
same,ALP,[2],1722.4 IU/L
same,ALT,[2],53.4 IU/L
same,AST,[2],73 IU/L
same,BUN,[2],16.6 mg/dL
same,CRE,[2],0.2 mg/dL
same,Ca,[2],11.2 mg/dL
same,Cl,[2],105.8 meq/L
same,DBIL,[2],0.008 mg/dL
same,GLC,[2],174 mg/dL
same,IP,[2],8.4 mg/dL
same,K,[2],4.5 meq/L
same,LDH,[2],71.4 IU/L
same,Na,[2],145.8 meq/L
same,PL,[2],144 mg/dL
same,RALB,[2],2.7 g/dL
same,TBIL,[2],0.062 mg/dL
same,TC,[2],97 mg/dL
same,TG,[2],34 mg/dL
same,TP,[2],5.8 g/dL
same,gamma-GTP,[2],1 IU/L
same,TERMINAL_BW,"[…], time 7 day",218.2 g
same,TERMINAL_BW,"[…], time 14 day",271 g
same,TERMINAL_BW,"[…], time 28 day",346.4 g
same,APTT,"[…], time 7 day",17.4 s
same,Bas,"[…], time 7 day",0%
same,Eos,"[…], time 7 day",1%
same,Fbg,"[…], time 7 day",269.4 mg/dL
same,Hb,"[…], time 7 day",14.1 g/dL
same,Ht,"[…], time 7 day",40.6%
same,Lym,"[…], time 7 day",78.8%
same,MCH,"[…], time 7 day",21.5 pg
same,MCHC,"[…], time 7 day",34.7%
same,MCV,"[…], time 7 day",61.9 fL
same,Mono,"[…], time 7 day",3.6%
same,Neu,"[…], time 7 day",16.2%
same,PT,"[…], time 7 day",12.2 s
same,Plat,"[…], time 7 day",122.9 x10_4/uL
same,RBC,"[…], time 7 day",656.4 x10_4/ul
same,Ret,"[…], time 7 day",4.5%
same,WBC,"[…], time 7 day",71.2 x10_2/uL
same,APTT,"[…], time 14 day",16.1 s
same,Bas,"[…], time 14 day",0%
same,Eos,"[…], time 14 day",1%
same,Fbg,"[…], time 14 day",278.2 mg/dL
same,Hb,"[…], time 14 day",13.8 g/dL
same,Ht,"[…], time 14 day",39.5%
same,Lym,"[…], time 14 day",80.6%
same,MCH,"[…], time 14 day",20.9 pg
same,MCHC,"[…], time 14 day",34.9%
same,MCV,"[…], time 14 day",59.9 fL
same,Mono,"[…], time 14 day",1.8%
same,Neu,"[…], time 14 day",16.2%
same,PT,"[…], time 14 day",14.2 s
same,Plat,"[…], time 14 day",111.8 x10_4/uL
same,RBC,"[…], time 14 day",659.4 x10_4/ul
same,Ret,"[…], time 14 day",4.9%
same,WBC,"[…], time 14 day",82.5 x10_2/uL
same,APTT,"[…], time 28 day",17.8 s
same,Bas,"[…], time 28 day",0%
same,Eos,"[…], time 28 day",1.2%
same,Fbg,"[…], time 28 day",280 mg/dL
same,Hb,"[…], time 28 day",15.1 g/dL
same,Ht,"[…], time 28 day",43%
